Test results from US8404693B2, “Substituted piperidine compounds and methods of their use” (Adolor Corporation, priority 2003, dated 2013).

Tests used:
[1] = target: T1, cloned human δ opioid receptor (Homo sapiens, UniProt P41143); assay: [3H]diprenorphine receptor binding, δ opioid receptor; conditions: [3H]diprenorphine displacement; read-out: affinity (expressed as Ki value), δ opioid receptor
T1 construct: expressed in transfected cells
Protocol: (§1) The potencies of the compounds were determined by testing the ability of a range of concentrations of each compound to inhibit the binding of the non-selective opioid antagonist, [^3H]diprenorphine, to the cloned human μ, κ, and δ opioid receptors, expressed in separate cell lines. IC50 values were obtained by nonlinear analysis of the data using GraphPad Prism version 3.00 for Windows (GraphPad Software, San Diego). Ki values were obtained by Cheng-Prusoff corrections of IC50 values.
(§2) The receptor binding method (DeHaven and DeHaven-Hudkins, 1998) was a modification of the method of Raynor et al. (1994). […] The filters were rinsed 4 times with 1 mL of cold 50 mM Tris HCl, pH 7.8 and radioactivity remaining on the filters determined by scintillation spectroscopy. Nonspecific binding was determined by the minimum values of the titration curves and was confirmed by separate assay wells containing 10 μM naloxone. Ki values were determined by Cheng-Prusoff corrections of IC50 values derived from nonlinear regression fits of 12 point titration curves using GraphPad Prism® version 3.00 for Windows (GraphPad Software, San Diego, Calif.).
(§3) To determine the equilibrium dissociation constant for the inhibitors (Ki), radioligand bound (cpm) in the presence of various concentrations of test compounds was measured. […]

[2] = test system: Mouse Gastrointestinal Transit (GIT); assay: Mouse Gastrointestinal Transit (GIT) Assay; assay type: in vivo; conditions: 10 mg/kg p.o., morphine 3 mg/kg s.c.
Protocol: Male Swiss-Webster mice (25-30 g) obtained from Ace Animals (Boyertown, Pa.) were used for all experiments. Mice were housed 4/cage in polycarbonate cages with food and water available ad libitum. Mice were on a 12 hours light:dark schedule with lights on at 6:30 a.m. All experiments were performed during the light cycle. Mice were fasted the night before the experiment, with water available ad libitum.
Mice were administered vehicle (10% DMSO:20% Cremophor EL:70% saline) or test compound (10 mg/kg) orally 2 or 6 hours before determination of GIT. Compounds were administered in a volume of 0.1 ml/10 g of body weight. Morphine (3 mg/kg) or vehicle (0.9% saline) was administered s.c. 35 min prior to determination of GIT. Ten minutes after the morphine treatment, mice were administered 0.2 ml of a charcoal meal orally. The charcoal meal consisted of a slurry of charcoal, flour, and water in the following ratio (1:2:8, w:w:v). Twenty-five minutes after receiving the charcoal meal, the mice were euthanized with CO2 and GIT determined.
GIT is expressed as the % GIT by the following formula:
[formula] For each compound a % Antagonism (% A) value was determined for the 2 and 6 hr antagonist pretreatment. Using the mean % GIT for each treatment group, % A was calculated using the following formula: […]

[3] = target: T2, cloned human μ opioid receptor (Homo sapiens, UniProt P35372); assay: [3H]diprenorphine receptor binding, μ opioid receptor; conditions: [3H]diprenorphine displacement; read-out: affinity (expressed as Ki value), μ opioid receptor
T2 construct: expressed in transfected cells
T2 sequence (P35372 whole entry): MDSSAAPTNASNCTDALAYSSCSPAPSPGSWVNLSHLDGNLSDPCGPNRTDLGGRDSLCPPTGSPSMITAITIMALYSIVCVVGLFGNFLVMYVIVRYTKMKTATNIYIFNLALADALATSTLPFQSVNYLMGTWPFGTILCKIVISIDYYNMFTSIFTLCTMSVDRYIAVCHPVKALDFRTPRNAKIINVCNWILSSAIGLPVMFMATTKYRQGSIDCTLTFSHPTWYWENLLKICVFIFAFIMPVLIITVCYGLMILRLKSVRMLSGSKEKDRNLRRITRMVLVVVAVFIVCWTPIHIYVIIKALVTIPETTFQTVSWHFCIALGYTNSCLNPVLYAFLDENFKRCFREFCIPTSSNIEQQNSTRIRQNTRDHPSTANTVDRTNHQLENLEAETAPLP
Protocol: as §1, §2, §3

[4] = target: T2, cloned human μ opioid receptor; assay: inhibition of agonist (loperamide)-stimulated [35S]GTPγS binding; assay type: biochemical; conditions: receptor not given; mu opioid receptor from context; read-out: in vitro antagonist activity (IC50)
Protocol: The potencies of the antagonists were assessed by their abilities to inhibit agonist-stimulated [^35S]GTPγS binding to membranes containing the cloned human μ, κ, or δ opioid receptors. The agonists used were loperamide for the μ opioid receptor, U50488H for the κ opioid receptor, and BW373U86 for the δ opioid receptor.
To determine the IC50 value, which was the concentration to give half-maximal inhibition of agonist-stimulated [^35S]GTPγS binding, the amount of [^35S]GTPγS bound in the presence of a fixed concentration of agonist and various concentrations of antagonist was measured. The fixed concentration of agonist was the EC80 for the agonist, which was the concentration to give 80% of the relative maximum stimulation of [^35S]GTPγS binding. The IC50 value was determined from a best nonlinear regression fit of the data to the following equation,
where Y is the amount of [^35S]GTPγS bound at each concentration of antagonist, Bottom is the calculated amount of [^35S]GTPγS bound in the presence of an infinite concentration of antagonist, Top is the calculated amount of [^35S]GTPγS bound in the absence of added antagonist, X is the logarithm of the concentration of antagonist, and Log IC50 is the logarithm of the concentration of antagonist where the amount of [^35S]GTPγS bound is halfway between Bottom and Top. […]

[5] = target: T3, cloned human κ opioid receptor (Homo sapiens, UniProt P41145); assay: [3H]diprenorphine receptor binding, κ opioid receptor; conditions: [3H]diprenorphine displacement; read-out: affinity (expressed as Ki value), κ opioid receptor
T3 construct: expressed in transfected cells
T3 sequence (P41145 whole entry): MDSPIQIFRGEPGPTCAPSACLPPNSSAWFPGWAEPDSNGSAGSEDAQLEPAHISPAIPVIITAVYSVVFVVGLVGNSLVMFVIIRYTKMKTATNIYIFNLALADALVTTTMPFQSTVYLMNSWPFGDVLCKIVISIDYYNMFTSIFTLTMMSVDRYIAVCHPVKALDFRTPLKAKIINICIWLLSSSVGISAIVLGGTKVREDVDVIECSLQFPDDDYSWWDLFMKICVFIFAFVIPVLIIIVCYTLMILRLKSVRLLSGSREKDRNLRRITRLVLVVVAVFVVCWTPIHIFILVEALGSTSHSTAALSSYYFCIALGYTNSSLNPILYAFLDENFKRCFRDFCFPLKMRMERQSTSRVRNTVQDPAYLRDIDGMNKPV
Protocol: as §1, §2, §3

T1 sequence (P41143 whole entry): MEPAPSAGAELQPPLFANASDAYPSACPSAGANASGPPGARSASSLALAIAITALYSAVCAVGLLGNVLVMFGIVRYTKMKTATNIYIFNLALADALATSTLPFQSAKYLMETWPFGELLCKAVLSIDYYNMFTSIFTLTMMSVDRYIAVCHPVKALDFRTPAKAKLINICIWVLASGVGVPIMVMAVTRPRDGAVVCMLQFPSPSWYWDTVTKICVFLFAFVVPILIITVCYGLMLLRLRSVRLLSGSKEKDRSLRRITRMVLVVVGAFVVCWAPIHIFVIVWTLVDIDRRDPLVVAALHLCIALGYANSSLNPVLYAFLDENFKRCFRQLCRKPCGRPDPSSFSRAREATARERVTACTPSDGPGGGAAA

SMILES	Ki [1] [nM]	% antagonism ([2]; 2 h pretreatment) [%]	% antagonism ([2]; 6 h pretreatment) [%]	Ki [3] [nM]	IC50 [4] [nM]	Ki [5] [nM]
C[C@H]1CN(C[C@H](Cc2ccccc2)C(=O)NCC(=O)O)CC[C@@]1(C)c1cccc(C(N)=O)c1 [Example 58, [[2(R)-[[4(R)-(3-amidophenyl)-3(R),4-dimethyl-1-piperidinyl]methyl]-1-oxo-3-phenylpropyl]amino]acetic Acid]	85	92	61	2.6	3	1080
C[C@H]1CN(CC(Cc2ccccc2)C(=O)NCC(=O)O)CC[C@@]1(C)c1cccc(C(=O)O)c1 (stereo in doubt) [Example 28, [[2(R)-[[4(R)-(3-carboxyphenyl)-3(R),4-dimethyl-1-piperidin-yl]methyl]-1-oxo-3-phenylpropyl]amino]acetic Acid]	1330	86	71	19	3.4	
